In patent US20260137679A1, “GCN2 INHIBITOR FOR TREATING METASTASES” (HIBERCELL, INC., priority 2022, published 2026):

Legend:
[1] = test system: ISR-induced proteins (PSAT1, ATF4, TRIB3, ASNS); test: JESS measurement of ISR-induced proteins in primary 4T1 tumors; type: in vivo, mouse; details: 3 mg/kg HC-7366; 7 days post treatment initiation; FIG. 7C
Protocol: A small (lentil-sized) piece of frozen tumor was lysed in 500 μl of lysis buffer containing 2% SDS, 10% betamercaptoethanol, protease and phosphatase inhibitors (Roche, 04 693 159 001 and 04 906 837 001), and 1× Benzonase (Sigma, E1014-25KU). Each sample was homogenized using a polytron (PT 10-35 GT) for 30 seconds, and heated at 95° C. for 5 minutes. Protein concentrations were determined using a 660 nm Protein assay (Pierce, 22662), with the detergent compatibility reagent (Pierce, 22663), according to manufacturer instructions.
Protein samples were analyzed by JESS (ProteinSimple) using the 12-230 kDa separation module (ProteinSimple, SM-W004), and antibodies targeting PSAT1 (Proteintech, 10501-1-AP), ATF4 (AbCam, ab184909), TRIB3 (Proteintech, 66702-1), and ASNS (Proteintech, 14681-1-AP).

[2] = test system: ISR-induced amino acid biosynthesis proteins ASNS and PSAT1; test: IHC of ISR-induced proteins in lungs of 4T1 tumor-bearing mice; type: in vivo, mouse; details: 3 mg/kg HC-7366; 21 days post treatment initiation; FIG. 7B
Protocol: (§1) Lungs were perfused with PBS through the heart to remove as much blood as possible prior to collection. Spleens were collected and weighed. […] The remaining lungs were collected with remaining spleen in RPMI medium+5% FBS on ice for flow cytometry. Separate animals were enrolled for lung IHC analyses. Following euthanasia of these animals, lungs were inflated with 10% neutral buffered formalin prior to formalin fixation for 48 hours and paraffin embedding.
Multiple paraffin sections more than 200 μm apart were cut for each lung sample. Three sections were stained with H&E on Leica Autostainer while one adjacent section was immuno-stained for ASNS (Cell Signaling #92479) and PSAT1 (Proteintech #10501-1-AP) using the Bond Rx stainer (Leica Biosystems). Stained slides were digitized using Versa 200 slide scanner (Leica Biosystems). Images were analyzed using custom-written macros in ImageJ/FIJI (NIH) analyzing the relative proportion of tumor regions to the whole lung area. The tumor regions were transferred onto the images of immune-stained sections and intensities of ASNS and PSAT1 signals within these tumor regions were quantified. (Graphing and statistics were performed using Prism Graphpad).

[3] = test system: CD4 and CD8 T-cells, S100A8/S100A9 in CD11b+ cells; test: Multiplex imaging of FFPE lung samples from 4T1 allografted mice; type: in vivo, mouse
Protocol: Slides were cut from FFPE lung samples. Slides were deparaffinized, rehydrated and heat mediated antigen retrieval was conducted with AR6 buffer (Akoya). Slides were blocked with Roche diagnostics antibody diluent (Fisher) and stained with primary antibodies for 1 hr at 110 rpm. HRP-conjugated secondary antibodies were added for 10 mins at 110 rpm followed by 10 mins with OPAL detection dye (Akoya). For multiplex staining, this process was repeated starting at the antigen retrieval stage. Multispectral Images were captured on the Polaris imaging system (Akoya) and spectral unmixing and cell segmentation was performed using Inform Tissue Finder software (Akoya). Imaging data was converted into .csv files and imported into Flowjo for immune phenotyping.
Primary antibodies used were rat anti-mouse CD4 (clone 4SM95, Thermo 14-9766-82-82, paired with Opal 620), rabbit anti-mouse Ki67 (clone SP6, Thermo MA5-14520, paired with Opal 780), rabbit anti-mouse CD8a (clone D4W2Z, Cell Signaling 98941, paired with Opal 520). Rabbit anti-mouse S1008A (Polyclonal, Proteintech 15792-1-AP, paired with Opal 520), rabbit anti-mouse S1009A (Polyclonal, Proteintech 26992-1-AP, paired with Opal 570), rabbit anti-mouse CD11b (clone EPR1344, Abcam 133357, paired with Opal 690).

[4] = test system: myeloid cells (immune gene transcripts); test: Quantigene gene expression analysis of tumors and spleens of 4T1 mice; type: in vivo, mouse; details: Day 21 of Tx, FIG. 9
Protocol: Mouse tumor and spleen tissues were snap frozen and stored in −80° C. freezer. The frozen tissue was soaked in 10× volume of the RNAlater®-ICE (ThermoFisher) at −20° C. for >16 hr. Then the tissue was transferred into M tube (Miltenyi Biotech) containing RLT lysis buffer (Qiagen) and homogenized by gentleMACS Dissociators with program of RNA_02 (Miltenyi Biotech). Total RNA was isolated from homogenized tissue using the RNeasy Plus Mini Kit (Qiagen) RNA concentration was determined by Epoch Microplate Spectrophotometer (Biotek).
A custom-made 77-plex mouse Immune QuantiGene Assay kit (ThermoFisher Scientific) using a bead-based multiplex assay were used to measure the expression of 69 immune genes, 4 stress genes plus 4 reference genes with Luminex xMAP 200 (ThermoFisher Scientific) according to the manufacturer's instructions.

S100A8 and S100A9 = S100A8 and S100A9 levels in PBMCs and plasma of 4T1 allografted mice; type: in vivo, mouse; details: FIG. 15C
[5] = test system: 4T1 mouse breast cancer cell line; test: 4T1 murine orthotopic allograft tumor model, lung metastases (H&E analysis); type: in vivo
Source text: (§2) 4T1 mouse breast cancer cell line was purchased from American Type Culture Collection (ATCC). Cells were free of human and animal pathogens as tested by h-IMPACT-I and IMPACT-III. Additionally, the genetic profile of the cells matched with the ECACC reference standard as tested by STR based DNA fingerprinting assay. Cells were maintained in RPMI 1640 with 10% FBS, and cultured up to 4 passages prior to implantation. Cells were harvested at ˜80% confluence, washed twice with RPMI 1640 without FBS and suspended in RPMI 1640 without FBS at 10×10^6 cells/mL for implantation.
(§3) Female Balb/c mice (7-8 week of age) were implanted into the right 4th mammary fat pad under Isoflurane anesthesia with 0.5×10^6 4T1 cells/mouse in a total volume of […] on Day 0 Animals were randomized into treatment groups when the average tumor volume reached 50-100 mm^3 on Day 6 post inoculation. Tumors were measured via caliper 2×/week. Tumor volume was calculated using the formula [tumor volume (mm^3)=π/6×length×width^2) Animals were sacrificed at either 7, 14, or 21 days post treatment via CO2 asphyxiation.
as §1
Multiple paraffin sections more than 200 μm apart were cut for each lung sample. […] Images were analyzed using custom-written macros in ImageJ/FIJI (NIH) analyzing the relative proportion of tumor regions to the whole lung area. The tumor regions were transferred onto the images of immune-stained sections and intensities of ASNS and PSAT1 signals within these tumor regions were quantified. […]

primary 4T1 tumors = test: 4T1 orthotopic allograft, primary tumor volume; type: in vivo, mouse; details: PO, BID; three independent studies; FIG. 4
Source text: as §2, §3

[6] = Spleen weight (splenomegaly) in 4T1 allografted mice; type: in vivo, mouse; details: especially at the activating 3 mg/kg dose level; 3 independent studies; FIG. 8B
Protocol: as §1

[7] = test system: BM-derived MDSCs / T-cells; test: Ex vivo co-culture of bone marrow-derived MDSCs with purified T-cells in tryptophan-depleted medium; type: cell-based, mouse; details: 0.1 μM HC-7366, 1:8 MDSCs:T-cells, FIG. 11B
Protocol: Single cell suspensions from mouse bone marrow were prepared. Cells were cultured in RPMI complete medium supplemented with GMCSF & IL6 (10 μg/mL) for 4 days to differentiate cells into PMN-MDSCs. T-cells were purified from mouse spleens with EasySep Mouse T-cell isolation kit per manufacturer's instructions Purified T-cells cells were then stained with CellTrace Violet dye (thermo) per manufacturer's instructions. Differentiated MDSCs and purified T-cells were co-cultured in tryptophan-depleted medium+/−HC-7366 (0.1 μM) for […], at a ratio of 1:8 MDSCs:T-cells. Proliferation of T-cells was measured by dilution of CTV via flow cytometry on a BD LSR Fortessa.

MDSCs and T-cells = test: Flow cytometry of single cell suspensions from spleens and lungs of 4T1 mice; type: in vivo, mouse
Source text: Tissue processing for single cell suspensions: • Spleen: Spleens were mashed through wetted 70 μm nylon strainer using syringe plunger. Strainers were rinsed with RPMI+5% FBS. Cells were pelleted and RBCs lysed with ACK lysis buffer (Gibco) per manufacturer's instructions. Cells were resuspended in RPMI+5% FBS and counted prior to plating for staining. • Lungs: Lungs were homogenized and enzymatically digested using a Mouse Tumor Dissociation Kit (miltenyi) per manufacturer's instructions. Cells were resuspended in RPMI+5% FBS and counted prior to plating for staining. During the digestion at 37° C., brefeldin A (Biolegend) was included in the enzyme mix to prevent export of cytokines.
1E6 cells per sample were plated in 96 well plates and extracellular staining was performed per standard procedures. Following extracellular staining, cells were fixed and permeabilized using FoxP3/Transcription Factor Staining Buffer Kit (Tonbo) and intracellular staining was performed per standard procedures. The following antibodies were used.
Following staining, flow cytometry was performed on a Cytek Aurora cytometer and analyzed using FlowJo software.

[8] = 4T1 allografted mice, FIGS. 15A-15B
[9] = greater in metastatic lesions than in normal tissue, FIGS. 12E-12F
[10] = 3 mg/kg HC-7366, Day 14, FIGS. 10B-10C

CNC(=O)c1ncn2cc(-c3c(F)ccc(NS(=O)(=O)c4cc(Cl)cnc4OC)c3F)ncc12 [HC-7366, 6-(3-((5-chloro-2-methoxypyridine)-3-sulfonamido)-2,6-difluorophenyl)-N-methylimidazo[1,5-a]pyrazine-1-carboxamide]
ASNS protein in primary 4T1 tumors (JESS) [1]: Increases
ATF4 protein in primary 4T1 tumors (JESS) [1]: Increases
PSAT1 protein in primary 4T1 tumors (JESS) [1]: Increases
TRIB3 protein in primary 4T1 tumors (JESS) [1]: Increases
ASNS expression in lungs (IHC) [2]: Significant increases
PSAT1 expression in lungs (IHC) [2]: Significant increases
S100A8 and S100A9 levels in lung metastases [3, 8]: significant reductions
S100A8 and S100A9 levels in normal lung tissue [3, 8]: significant reductions
CD8 T-cells in metastatic lesions of lung ([3]; HC-7366 treated 4T1 allografted mice, FIG. 12C): significantly increased
CD8 T-cells in normal lung tissue ([3]; HC-7366 treated 4T1 allografted mice, increase compared with that in metastatic lesions, FIG. 12D): to a lesser degree
Ki67 expression of CD4 T-cells in lung [3, 9]: significantly increased Ki67 expression
Ki67 expression of CD8 T-cells in lung [3, 9]: significantly increased Ki67 expression
gene expression in MDSC-enriched spleens ([4]; 3 mg/kg HC-7366): consistent increases in immune activation transcripts and reductions in inhibitory transcripts
gene expression in tumor tissue [4]: did not show consistent effects
S100A8 and S100A9 levels in PBMCs (S100A8 and S100A9): significant reductions
S100A8 and S100A9 levels in plasma (S100A8 and S100A9): significant reductions
overall metastatic area in lung samples ([5]; 30 mg/kg HC-7366, 4T1 allografted mice, FIGS. 1A-1B): significant reduction in overall metastatic area
anti-metastatic effect in lungs of tumor bearing mice ([5]; 1-3 mg/kg HC-7366, PO, BID, lungs collected 21 days after treatment initiation, FIGS. 5A-5C): consistent anti-metastatic effect
number of lung metastases ([5]; combination therapy of HC-7366 with anti-PD-1 therapy, FIG. 2): significant reduction in the number of lung metastases
efficacy on primary 4T1 tumors (tumor volume) (primary 4T1 tumors): little to no efficacy
splenomegaly (spleen weight) [6]: significantly decreases splenomegaly
T-cell proliferation in the presence of BM-derived MDSCs (CTV dilution) [7]: significantly rescued T-cell proliferation
CD86 on MDSCs in the spleen and lungs (MDSCs and T-cells; [10]): significantly increased
MHCII on MDSCs in the spleen and lungs (MDSCs and T-cells; [10]): significantly increased
CD98 expression on CD8 T-cells in the lungs (MDSCs and T-cells; 3 mg/kg HC-7366, FIG. 14A): not on CD8 T-cells
CD98 expression on MDSCs in the lungs (MDSCs and T-cells; 3 mg/kg HC-7366, FIG. 14A): significantly increased
CD98 expression on MDSCs and CD8 T-cells in the spleen (MDSCs and T-cells; 3 mg/kg HC-7366, both cell subsets, FIG. 14B): increased CD98 expression
MDSC frequency in spleens and lungs (MDSCs and T-cells; 3 mg/kg HC-7366, both organs, FIG. 10A): significantly reduced
activation markers of CD4 and CD8 T-cells in lungs (intracellular flow cytometry) (MDSCs and T-cells; Day 21 of Tx, FIGS. 13A-13B): significantly increased activation markers
activation markers of CD4 and CD8 T-cells in spleens (intracellular flow cytometry) (MDSCs and T-cells; Day 21 of Tx, FIGS. 13C-13D): not in spleens
